# Values of other authors as cited in patent US20030084473A1, “Non-transgenic herbicide resistant plants” (priority 2001, published 2003).
# Target: wild-type EPSPS from E. coli (Escherichia coli, UniProt P0A6D3)
# Conditions: read-out: apparent Km for PEP
# Sequence of wild-type EPSPS from E. coli (P0A6D3 whole entry): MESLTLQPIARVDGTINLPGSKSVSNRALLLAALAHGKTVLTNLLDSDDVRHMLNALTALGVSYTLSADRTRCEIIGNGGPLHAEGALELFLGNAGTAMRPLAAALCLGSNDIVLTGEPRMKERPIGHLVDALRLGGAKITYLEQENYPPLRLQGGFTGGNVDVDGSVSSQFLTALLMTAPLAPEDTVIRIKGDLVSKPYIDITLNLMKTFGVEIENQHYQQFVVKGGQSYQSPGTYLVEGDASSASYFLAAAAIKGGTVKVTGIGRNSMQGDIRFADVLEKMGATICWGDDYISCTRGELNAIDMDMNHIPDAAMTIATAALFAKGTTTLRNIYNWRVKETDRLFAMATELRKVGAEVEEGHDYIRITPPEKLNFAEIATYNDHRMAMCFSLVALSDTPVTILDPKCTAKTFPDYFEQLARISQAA
compound,measurement,value
"C=C(OP(=O)(O)O)C(=O)O [PEP, phosphoenolpyruvic acid]",Km,10 µM
